Test results reported in US20260083743A1, “NUCLEOSIDE DERIVATIVE FOR PREVENTING AND TREATING INFLAMMATION AND APPLICATION THEREOF” (WEST CHINA HOSPITAL OF SICHUAN UNIVERSITY, priority 2019, published 2026).

Assays:
[1] = tested on: sodium taurocholate-induced pancreatitis model; assay: Improvement effect on pancreatitis, sodium taurocholate-induced model in mice; type: in vivo, Blab/c mice; set-up: Pancreatic histopathological injury score: scale not given here; conditions: 17.5 mg/kg caudal vein 1 h, 3 h and 6 h after model construction; after 24 hours; n = 10
Text: In this example, the improvement effect of compounds 1 19 prepared in example 1 on […] measured. (1) Animals: Adult and Healthy Male Blab/c Mice, 25 30 g. […] A model was made with sodium taurocholate. […] After anesthesia, the surgical site was sterilized with an alcohol cotton ball. The sterile gauze was placed on the surgical site. A laparotomy was made at the width of two fingers under the xiphoid process. After seeing the liver, an incision was made, the cotton swab soaked in normal saline was stretched into the enterocoelia, the duodenum was sought on the back of the liver, turned out and placed on the sterile gauze, the pancreaticobiliary duct and duodenal papilla were sought, and the needle of 1 mL syringe was used to pierce a hole on the along the direction of the nipple, a 24 G indwelling needle tube was inserted into the pancreatic duct along the nipple, and the common bile duct below the liver was closed with an arterial vascular clip, with a dose of 0.1 mL/100 g and 0.1 mL/min inject sodium taurocholate with a concentration of 3.8% at a flow rate. During this process, pay attention to adding saline to the exposed pancreas and duodenum to keep it moist. After the injection, the tube was slowly taken out and the bile duct was continued to be closed. The main tube was removed from the vascular artery clip 3 minutes later, the duodenum was also accommodated, and the abdominal cavity was sutured in double layers. The blank control group was injected with equal volume of isotonic saline. […] The blank control group and the model control group were given equal volume of isotonic saline. After 24 hours, pancreatic tissue and blood samples were taken, and the pancreatic histopathological injury score and the level of pancreatic amylase in serum were evaluated.

[2] = tested on: arthritis model; assay: Improvement effect on arthritis, sodium iodoacetate knee joint model in SD rats; type: in vivo; set-up: Pathological tissue score (joint): scale not given here; conditions: gavage every day 100 mg/kg/d; 4th week after operation; n = 10
Procedure: In this example, the improvement effect of compounds 1˜19 prepared in example 1 on arthritic was measured. (1) Animals: SD rats, four rates in one cage, were fed under the conditions of constant temperature (25±2° C.) and illumination control (12 h day/night circulation). The animals were fed with standard feed, and fed for at least 7 days to adapt environment before the experiment. […] (3) SD rats were fasted for 12 hours before operation, and weighed and recorded prior to operation. The blank control group was not treated any more. […] After anesthesia, they were fixed in the supine position. 0.1 ml of 1 g/L sodium iodoacetate solution was injected into the knee joint. From the fifth day, the animals were driven to run for 30 minutes every day, and they were allowed to move freely in the cage the rest of the time. After modeling, indomethacin and compounds 1˜19 were given by gavage every day at the dose of 100 mg/kg/d. The blank control group and the model control group were given equal volume of isotonic saline. At the 4th week after operation, the articular fluid of rats in each group was extracted to measure the content of MMP-13. The rats were killed, and the subchondral bone plate of the inner condyle of the tibia of the right knee was cut and processed into specimens, and pathological scores were made.

[3] = tested on: mouse hepatitis model; assay: Improvement effect on hepatitis, concanavalin A (ConA) mouse hepatitis model; type: in vivo, Blab/c mice; conditions: gavage 50 mg/kg, n = 10
Procedure: In this example, the improvement effect of compounds 1 19 prepared in example 1 on […] measured. (1) Animals: Adult and Healthy Male Blab/c Mice, 25 30 g. […] The blank control group was injected with equal volume of isotonic saline. After modeling, indomethacin and compounds 1 19 were given by gavage every day at the dose of 50 mg/kg. The blank control group and the model control group were given equal volume of isotonic saline. Eyeball blood and liver tissue were taken at 6 h, 12 h, 24 h and 48 h after administration. The levels of serum alanine aminotransferase (ALT) and aspartate aminotransferase (AST) were measured.

Row | SMILES | Amylopsin (pancreatic amylase level in serum) [1] [KU/L] | Pancreatic histopathological injury score [1] | MMP-13 content in joint fluid [2] [mg/L] | Pathological tissue score (joint) [2] | Aspartate aminotransferase (AST) ([3]; 6 h after administration) [U/L] | Serum alanine aminotransferase (ALT) ([3]; 6 h after administration) [U/L] | Aspartate aminotransferase (AST) ([3]; 12 h after administration) [U/L] | Serum alanine aminotransferase (ALT) ([3]; 12 h after administration) [U/L] | Aspartate aminotransferase (AST) ([3]; 24 h after administration) [U/L] | Serum alanine aminotransferase (ALT) ([3]; 24 h after administration) [U/L] | Aspartate aminotransferase (AST) ([3]; 48 h after administration) [U/L] | Serum alanine aminotransferase (ALT) ([3]; 48 h after administration) [U/L]
1 | CC(=O)OCCn1c(=O)c2c(ncn2C)n(C)c1=O [Compound 8, 1-(acetic acid-2-ethyl)-3,7-dimethylxanthine] | 5 ± 2 | 0.8 ± 0.4 | 92 ± 8 | 0.4 ± 0.5 | 68 ± 7 | 67 ± 8 | 95 ± 8 | 110 ± 13 | 122 ± 12 | 172 ± 16 | 98 ± 9 | 132 ± 13
2 | CCn1c(=O)c2c(ncn2CC)n(C)c1=O [Compound 5, 1,7-diethyl-3-methylxanthine] | 3 ± 1 | 0.4 ± 0.2 | 99 ± 5 | 0.7 ± 0.3 | 71 ± 7 | 73 ± 8 | 93 ± 8 | 109 ± 8 | 101 ± 8 | 136 ± 12 | 91 ± 9 | 105 ± 12
3 | CC(C)n1cnc2c(=O)[nH]cnc21 [Compound 6, 9-isopropyl hypoxanthine] | 2 ± 1 | 0.4 ± 0.1 | 90 ± 8 | 0.3 ± 0.4 | 49 ± 7 | 56 ± 5 | 86 ± 8 | 85 ± 6 | 103 ± 9 | 136 ± 16 | 84 ± 8 | 103 ± 13
4 | CC(C)n1c(=O)c2c(ncn2C(C)C)n(C)c1=O [Compound 7, 1,7-diisopropyl-3-methylxanthine] | 4 ± 2 | 0.5 ± 0.2 | 84 ± 5 | 0.3 ± 0.3 | 41 ± 7 | 51 ± 8 | 78 ± 8 | 93 ± 8 | 101 ± 8 | 131 ± 12 | 84 ± 7 | 95 ± 12
5 | CC(C)n1c(=O)c2c(ncn2C)n(C)c1=O [Compound 2, 1-isopropyl-3,7-dimethylxanthine] | 4 ± 2 | 0.6 ± 0.2 | 92 ± 8 | 0.3 ± 0.4 | 53 ± 7 | 59 ± 8 | 89 ± 8 | 98 ± 6 | 112 ± 10 | 142 ± 12 | 99 ± 9 | 112 ± 13
6 | CC(C)C(=O)NCCn1c(=O)c2c(ncn2C)n(C)c1=O [Compound 17] | 10 ± 3 | 1.5 ± 0.4 | 99 ± 6 | 0.5 ± 0.5 | 65 ± 5 | 79 ± 8 | 102 ± 12 | 145 ± 13 | 119 ± 12 | 163 ± 16 | 107 ± 11 | 142 ± 15
7 | CCn1cnc2c1c(=O)n(C)c(=O)n2C [Compound 4, 1,3-dimethyl-7-ethylxanthine] | 11 ± 2 | 1.4 ± 0.4 | 102 ± 8 | 0.6 ± 0.4 | 65 ± 7 | 79 ± 8 | 91 ± 8 | 118 ± 9 | 103 ± 9 | 142 ± 12 | 96 ± 9 | 105 ± 13
8 | CC(C)n1c(=O)[nH]cc(F)c1=O [Compound 19, 3-isopropyl-5-fluorouracil] | 8 ± 2 | 1.0 ± 0.3 | 89 ± 6 | 0.3 ± 0.2 | 57 ± 7 | 55 ± 6 | 92 ± 8 | 87 ± 6 | 117 ± 9 | 139 ± 12 | 101 ± 9 | 111 ± 13
9 | CCn1c(=O)c2ncn(C)c2n(C)c1=O [Compound 3, 1-ethyl-3,9-dimethylxanthine] | 3 ± 2 | 0.5 ± 0.2 | 97 ± 4 | 0.6 ± 0.3 | 59 ± 7 | 67 ± 8 | 96 ± 8 | 102 ± 8 | 114 ± 11 | 152 ± 14 | 103 ± 9 | 113 ± 12
10 | CCn1c(=O)c2c(ncn2C)n(C)c1=O [Compound 1, 1-ethyl-3-7-dimethylxanthine] | 3 ± 1 | 0.4 ± 0.3 | 86 ± 4 | 0.2 ± 0.3 | 43 ± 7 | 56 ± 8 | 82 ± 8 | 97 ± 8 | 104 ± 8 | 132 ± 12 | 89 ± 9 | 100 ± 12
11 | CCC(=O)OCCn1c(=O)c2c(ncn2C)n(C)c1=O [Compound 9, 1-(propionic acid-2-ethyl)-3,7-dimethylxanthine] | 5 ± 3 | 0.5 ± 0.4 | 97 ± 7 | 0.6 ± 0.2 | 78 ± 7 | 78 ± 8 | 123 ± 8 | 110 ± 13 | 142 ± 13 | 175 ± 18 | 131 ± 14 | 123 ± 12
